Values quoted from earlier work, collected in US6319912A, “Cyclic regimens using 2,1-benzisothiazoline 2,2-dioxides” (American Home Products Corporation, priority 2000, dated 2001).

Tested on: hormone dependent prostate cancer
Conditions: literature, Michna et al 1995

SMILES | effectiveness in a model of hormone dependent prostate cancer
CC#C[C@]1(O)CC[C@H]2[C@@H]3CCC4=CC(=O)CCC4=C3[C@@H](c3ccc(N(C)C)cc3)C[C@@]21C [mifepristone] | effective
CN(C)c1ccc([C@H]2C[C@]3(C)[C@@H](CC[C@]3(O)CCCO)[C@@H]3CCC4=CC(=O)CCC4=C32)cc1 [onapristone] | effective
